Results reported in patent publication US20210353631A1, “1,4-Benzoxazines for the Treatment of Cancers and Other Neurodegenerative Diseases” (Neugeneron LLC, priority 2020, published 2021).

System: 451 kinases
Assay: Kinome profiling, count of kinases inhibited in the whole panel
Assay type: binding
Conditions: substantially defined as over 36% inhibition at 1 uM

O=C1Nc2ccc(I)cc2/C1=C/c1cc(Br)c(O)c(Br)c1 [GW5074, reference compound]
kinases inhibited substantially of the 451 kinases tested: 21
